The results in this text go back to patent US12240816B2, “Deuterated compounds and uses thereof” (Aldeyra Therapeutics, Inc., priority 2015, dated 2025).

pIC50: −log10 of the molar value. Where a SMILES comes first, the peptide text is derived from it. Where no end group is shown, it is not given here. Where only a bound is given, the exact number is not on record here.

Test in all cases: biochemical
Format in all cases: biochemical

In experiment [1] the target is enzyme and uptake assay panel targets (Table 36) (Homo sapiens, UniProt Q9UQM7). To be noted: CaMK2α (h); reference compound.
For experiment [2], the target named is enzyme and uptake assay panel targets (Table 36). The settings on record: COMT (catechol-O-methyl transferase); reference compound.
In experiment [3] the target is enzyme and uptake assay panel targets (Table 36) (Homo sapiens, UniProt P06241). To be noted: Fyn kinase (h); reference compound.
Experiment [4] addresses enzyme and uptake assay panel targets (Table 36) (Mus musculus, UniProt P29477). The settings on record: inducible NOS; reference compound.
Experiment [5] addresses enzyme and uptake assay panel targets (Table 36) (Homo sapiens, UniProt P08473). To be noted: Peptidase, Metalloproteinase, Neutral Endopeptidase; reference compound.
The target in experiment [6] is enzyme and uptake assay panel targets (Table 36) (Homo sapiens, UniProt Q13370). The settings on record: PDE3B (h); reference compound.
Experiment [7] addresses enzyme and uptake assay panel targets (Table 36) (Homo sapiens, UniProt Q9BYF1). To be noted: ACE-2 (h); reference compound.
The target of experiment [8] is enzyme and uptake assay panel targets (Table 36) (Homo sapiens, UniProt P03956).
Experiment [9] deals with enzyme and uptake assay panel targets (Table 36) (Homo sapiens, UniProt P08253).
The target in experiment [10] is enzyme and uptake assay panel targets (Table 36) (Homo sapiens, UniProt P14780).
Experiment [11] deals with T1, enzyme and uptake assay panel targets (Table 36) (Bos taurus, UniProt P80457).
T1 construct: other: xanthine oxidase/superoxide 02^−scavenging; nH; other: xanthine oxldase/superoxide 02 ^−scavenging; 1.0E−05M; ot; purified xanthine oxidase from bovine milk

The target in experiment [12] is enzyme and uptake assay panel targets (Table 36) (Homo sapiens, UniProt P42574).
Experiment [13] addresses T2, enzyme and uptake assay panel targets (Table 36).
T2 construct: other: ATPase (Na+/K+); 1.0E−05M; nH; porcine cerebral cortex
The settings on record: ATPase (Na+/K+); reference compound.

In experiment [14] the target is enzyme and uptake assay panel targets (Table 36) (Homo sapiens, UniProt O00408). The settings on record: PDE2A1 (h); reference compound.
Experiment [15] concerns the target enzyme and uptake assay panel targets (Table 36) (Homo sapiens, UniProt O76074). To be noted: PDE5 (h) (non-selective); reference compound.
Experiment [16] has as its target enzyme and uptake assay panel targets (Table 36) (Homo sapiens, UniProt Q14790). The settings on record: caspase-8 (h); reference compound.
Experiment [17] addresses enzyme and uptake assay panel targets (Table 36) (Homo sapiens, UniProt P09917).
Experiment [18] deals with enzyme and uptake assay panel targets (Table 36) (Homo sapiens, UniProt P18054).
Experiment [19] has as its target T3, enzyme and uptake assay panel targets (Table 36) (Bos taurus, UniProt P11541+P23439).
T3 construct: other: PDE6 (non-selective); 1.0E−05M; nH; bovine retina
The settings on record: PDE6 (non-selective); reference compound.

Sequence of enzyme and uptake assay panel targets (Table 36) (Homo sapiens, UniProt O00408) (O00408 whole entry): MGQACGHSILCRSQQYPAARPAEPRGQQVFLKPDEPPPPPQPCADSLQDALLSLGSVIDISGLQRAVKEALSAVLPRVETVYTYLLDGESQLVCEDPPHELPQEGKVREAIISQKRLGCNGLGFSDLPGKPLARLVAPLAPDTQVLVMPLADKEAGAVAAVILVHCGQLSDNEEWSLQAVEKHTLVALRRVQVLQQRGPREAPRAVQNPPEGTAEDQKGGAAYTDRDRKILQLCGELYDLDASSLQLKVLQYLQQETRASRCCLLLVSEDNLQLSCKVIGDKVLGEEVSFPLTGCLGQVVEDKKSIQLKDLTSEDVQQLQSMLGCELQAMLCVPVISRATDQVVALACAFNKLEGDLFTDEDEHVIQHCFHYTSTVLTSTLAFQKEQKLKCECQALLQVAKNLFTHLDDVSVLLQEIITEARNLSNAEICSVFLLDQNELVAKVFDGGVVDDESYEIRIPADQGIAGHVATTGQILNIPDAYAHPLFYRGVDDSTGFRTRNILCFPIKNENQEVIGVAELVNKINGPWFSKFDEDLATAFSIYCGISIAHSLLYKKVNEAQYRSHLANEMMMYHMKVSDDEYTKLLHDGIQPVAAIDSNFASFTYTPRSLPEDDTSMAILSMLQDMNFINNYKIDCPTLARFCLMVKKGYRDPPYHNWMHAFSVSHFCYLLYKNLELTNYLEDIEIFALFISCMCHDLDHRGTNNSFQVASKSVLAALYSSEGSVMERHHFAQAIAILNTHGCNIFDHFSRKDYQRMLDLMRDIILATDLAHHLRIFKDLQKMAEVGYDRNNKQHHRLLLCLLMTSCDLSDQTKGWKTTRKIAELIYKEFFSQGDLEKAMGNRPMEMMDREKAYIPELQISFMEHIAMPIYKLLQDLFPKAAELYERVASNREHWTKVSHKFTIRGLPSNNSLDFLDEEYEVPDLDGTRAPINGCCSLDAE
Sequence of enzyme and uptake assay panel targets (Table 36) (Homo sapiens, UniProt P08473) (P08473 whole entry): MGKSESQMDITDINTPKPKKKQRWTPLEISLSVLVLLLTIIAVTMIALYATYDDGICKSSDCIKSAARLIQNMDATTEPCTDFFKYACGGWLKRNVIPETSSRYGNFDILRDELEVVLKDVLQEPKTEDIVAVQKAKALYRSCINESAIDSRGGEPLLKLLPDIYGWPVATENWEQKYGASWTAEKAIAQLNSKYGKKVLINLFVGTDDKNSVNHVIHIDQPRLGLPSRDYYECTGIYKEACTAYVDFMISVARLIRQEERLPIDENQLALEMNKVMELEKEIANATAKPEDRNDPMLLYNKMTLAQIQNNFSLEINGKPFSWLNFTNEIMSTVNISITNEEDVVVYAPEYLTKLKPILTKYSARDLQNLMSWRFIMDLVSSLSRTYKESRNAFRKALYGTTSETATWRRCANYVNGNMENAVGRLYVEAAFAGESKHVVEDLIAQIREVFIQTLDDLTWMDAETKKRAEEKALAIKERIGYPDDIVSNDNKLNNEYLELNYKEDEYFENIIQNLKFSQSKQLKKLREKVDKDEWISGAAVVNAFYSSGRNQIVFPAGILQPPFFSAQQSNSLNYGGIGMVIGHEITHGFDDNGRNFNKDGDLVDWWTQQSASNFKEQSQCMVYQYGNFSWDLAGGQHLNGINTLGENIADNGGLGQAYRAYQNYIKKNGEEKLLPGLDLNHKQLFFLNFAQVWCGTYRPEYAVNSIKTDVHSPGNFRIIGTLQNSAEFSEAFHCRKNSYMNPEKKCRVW
Sequence of enzyme and uptake assay panel targets (Table 36) (Mus musculus, UniProt P29477) (P29477 whole entry): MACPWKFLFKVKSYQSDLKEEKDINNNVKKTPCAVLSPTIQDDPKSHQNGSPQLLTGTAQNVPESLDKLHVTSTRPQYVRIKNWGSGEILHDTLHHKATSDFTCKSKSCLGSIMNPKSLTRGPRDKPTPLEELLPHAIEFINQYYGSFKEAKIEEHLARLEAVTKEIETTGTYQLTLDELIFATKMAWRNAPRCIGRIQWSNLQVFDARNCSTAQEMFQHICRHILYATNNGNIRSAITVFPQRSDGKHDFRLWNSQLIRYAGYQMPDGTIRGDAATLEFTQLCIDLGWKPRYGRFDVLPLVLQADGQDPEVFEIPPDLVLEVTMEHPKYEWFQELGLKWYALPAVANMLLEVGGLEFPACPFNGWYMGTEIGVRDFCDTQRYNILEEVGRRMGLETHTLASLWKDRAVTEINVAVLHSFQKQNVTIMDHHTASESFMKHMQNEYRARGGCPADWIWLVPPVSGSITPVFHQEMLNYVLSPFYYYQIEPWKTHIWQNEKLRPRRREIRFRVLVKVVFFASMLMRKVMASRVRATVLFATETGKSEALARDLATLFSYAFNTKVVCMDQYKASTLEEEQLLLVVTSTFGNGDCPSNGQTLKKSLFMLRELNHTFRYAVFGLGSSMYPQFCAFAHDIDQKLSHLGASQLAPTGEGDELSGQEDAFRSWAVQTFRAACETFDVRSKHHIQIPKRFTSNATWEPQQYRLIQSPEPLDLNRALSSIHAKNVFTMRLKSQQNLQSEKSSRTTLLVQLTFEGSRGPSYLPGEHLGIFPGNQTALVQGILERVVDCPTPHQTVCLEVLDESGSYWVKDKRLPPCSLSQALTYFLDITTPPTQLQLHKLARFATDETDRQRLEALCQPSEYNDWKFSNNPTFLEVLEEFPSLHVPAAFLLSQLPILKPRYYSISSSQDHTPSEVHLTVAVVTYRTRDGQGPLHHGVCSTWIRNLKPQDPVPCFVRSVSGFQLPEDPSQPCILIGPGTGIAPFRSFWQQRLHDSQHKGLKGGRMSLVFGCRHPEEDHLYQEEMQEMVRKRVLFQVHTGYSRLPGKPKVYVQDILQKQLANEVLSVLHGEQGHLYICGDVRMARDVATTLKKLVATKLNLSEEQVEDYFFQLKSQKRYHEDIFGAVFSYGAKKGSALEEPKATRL
Sequence of enzyme and uptake assay panel targets (Table 36) (Homo sapiens, UniProt Q14790) (Q14790 217-479): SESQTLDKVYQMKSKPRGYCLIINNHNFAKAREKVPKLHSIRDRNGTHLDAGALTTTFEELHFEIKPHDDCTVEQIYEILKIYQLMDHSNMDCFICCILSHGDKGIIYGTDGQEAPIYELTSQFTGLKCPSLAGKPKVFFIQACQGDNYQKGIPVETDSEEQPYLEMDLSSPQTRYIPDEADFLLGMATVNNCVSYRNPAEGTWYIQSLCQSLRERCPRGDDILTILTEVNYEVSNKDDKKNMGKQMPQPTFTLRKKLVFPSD
Sequence of enzyme and uptake assay panel targets (Table 36) (Homo sapiens, UniProt Q9BYF1) (Q9BYF1 18-805): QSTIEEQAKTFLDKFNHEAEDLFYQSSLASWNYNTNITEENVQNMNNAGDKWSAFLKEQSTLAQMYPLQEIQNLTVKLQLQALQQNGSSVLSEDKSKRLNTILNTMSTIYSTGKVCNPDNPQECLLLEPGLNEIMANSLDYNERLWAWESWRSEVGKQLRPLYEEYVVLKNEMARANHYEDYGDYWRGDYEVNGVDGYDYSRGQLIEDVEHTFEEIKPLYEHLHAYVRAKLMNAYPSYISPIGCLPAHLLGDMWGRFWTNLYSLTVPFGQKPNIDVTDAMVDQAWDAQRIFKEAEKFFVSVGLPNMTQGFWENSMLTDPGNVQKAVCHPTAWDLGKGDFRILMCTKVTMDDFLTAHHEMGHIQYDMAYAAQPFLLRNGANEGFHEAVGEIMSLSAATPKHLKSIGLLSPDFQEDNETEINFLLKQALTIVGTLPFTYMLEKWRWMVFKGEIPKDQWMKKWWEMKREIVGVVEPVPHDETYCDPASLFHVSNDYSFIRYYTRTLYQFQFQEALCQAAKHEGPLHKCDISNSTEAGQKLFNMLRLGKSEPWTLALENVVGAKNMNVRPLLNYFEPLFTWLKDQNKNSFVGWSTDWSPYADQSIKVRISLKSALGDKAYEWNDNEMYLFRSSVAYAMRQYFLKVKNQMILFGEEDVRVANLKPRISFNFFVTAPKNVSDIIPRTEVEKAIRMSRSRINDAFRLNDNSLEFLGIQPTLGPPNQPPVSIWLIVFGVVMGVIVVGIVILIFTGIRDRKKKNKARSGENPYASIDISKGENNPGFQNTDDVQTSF
Sequence of enzyme and uptake assay panel targets (Table 36) (Homo sapiens, UniProt P03956) (P03956 100-469): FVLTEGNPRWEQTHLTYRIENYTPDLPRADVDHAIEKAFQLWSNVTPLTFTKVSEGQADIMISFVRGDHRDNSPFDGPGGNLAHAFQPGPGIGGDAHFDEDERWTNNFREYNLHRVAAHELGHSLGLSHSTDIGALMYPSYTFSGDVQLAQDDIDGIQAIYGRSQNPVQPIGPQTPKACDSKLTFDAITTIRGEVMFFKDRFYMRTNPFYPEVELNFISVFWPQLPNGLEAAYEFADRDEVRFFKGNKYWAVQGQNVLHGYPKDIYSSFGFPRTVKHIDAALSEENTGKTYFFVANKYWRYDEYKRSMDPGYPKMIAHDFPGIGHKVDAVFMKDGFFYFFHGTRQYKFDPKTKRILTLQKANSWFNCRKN
Sequence of enzyme and uptake assay panel targets (Table 36) (Homo sapiens, UniProt P14780) (P14780 94-707): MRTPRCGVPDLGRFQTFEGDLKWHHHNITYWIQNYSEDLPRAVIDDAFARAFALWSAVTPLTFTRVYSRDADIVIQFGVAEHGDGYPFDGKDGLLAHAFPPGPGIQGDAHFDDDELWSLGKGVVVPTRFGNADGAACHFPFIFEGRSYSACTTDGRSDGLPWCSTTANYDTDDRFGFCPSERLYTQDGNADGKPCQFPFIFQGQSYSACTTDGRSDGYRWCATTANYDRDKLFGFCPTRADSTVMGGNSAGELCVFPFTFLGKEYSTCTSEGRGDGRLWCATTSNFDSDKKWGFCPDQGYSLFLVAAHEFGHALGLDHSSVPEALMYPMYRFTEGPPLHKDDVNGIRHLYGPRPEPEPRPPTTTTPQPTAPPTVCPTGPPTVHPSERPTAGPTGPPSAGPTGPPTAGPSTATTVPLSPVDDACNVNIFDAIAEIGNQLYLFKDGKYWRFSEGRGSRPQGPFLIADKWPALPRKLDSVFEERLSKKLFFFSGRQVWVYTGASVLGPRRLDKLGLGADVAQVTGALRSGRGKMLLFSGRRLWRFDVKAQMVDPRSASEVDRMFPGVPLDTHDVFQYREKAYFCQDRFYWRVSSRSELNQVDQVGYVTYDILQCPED

With KKALRRQEAVDAL [AIP], in experiment [1], the half-maximal inhibitory concentration (IC50) turned out to be 260 nM.

For the compound `O=C(c1cc(O)c(O)c([N+](=O)[O-])c1)c1ccccc1F` [Ro 41-0960], the pIC50 in experiment [2] was 7.52.

In the case of `Cc1ccc(-c2nn(C(C)(C)C)c3ncnc(N)c23)cc1` [PP1], in experiment [3], the nH is on record as >3.

In [4], `CC(=N)NCc1cccc(CN)c1` [Compound 1400W] had a pIC50 of 7.40 and a nH of 1.4.

For the compound `CC(C)C[C@H](NP(=O)(O)O[C@@H]1O[C@@H](C)[C@H](O)[C@@H](O)[C@H]1O)C(=O)N[C@@H](Cc1c[nH]c2ccccc12)C(=O)O` [Phosphoramidon], in experiment [5], the “IC50” value was found to be 16 nM and the nH is reported as 0.9.

The compound `Cc1[nH]c(=O)c(C#N)cc1-c1ccncc1` [milrinone] gave a nH in experiment [6] of 0.9.

As to `CC(=O)NCC(=O)N[C@@H](CC(=O)O)C(=O)N[C@@H](Cc1ccc(O)cc1)C(=O)N[C@@H](CO)C(=O)N[C@@H](Cc1c[nH]cn1)C(=O)N[C@H]1CSSC[C@@H](C(=O)N[C@H](C(=O)N[C@@H](Cc2ccc(O)cc2)C(=O)N2CCC[C@H]2C(=O)N[C@@H](CC(=O)O)C(=O)N2CCC[C@H]2C(=O)N[C@@H](CCC(=O)O)C(=O)NCC(=O)NCC(=O)NCC(N)=O)[C@@H](C)O)NC(=O)[C@H](CCCCN)NC(=O)[C@H](Cc2c[nH]c3ccccc23)NC(=O)[C@H](Cc2c[nH]c3ccccc23)NC(=O)[C@@H]2CCCN2C(=O)[C@H](Cc2ccc(O)cc2)NC(=O)[C@H](Cc2ccc(O)cc2)NC(=O)[C@H](CCCNC(=N)N)NC(=O)[C@H](CC(C)C)NC(=O)[C@@H]2CCCN2C(=O)[C@H](CO)NC1=O` [Ac-GG-26-NH2], in experiment [7], the “IC50” value came out at 290 nM and the nH came to 2.4.

In the case of `CNC(=O)[C@H](Cc1c[nH]c2ccccc12)NC(=O)[C@@H](CC(=O)NO)CC(C)C` [GM6001], the nH was found to be 1.3 in experiment [8], 1.3 in [9] and 0.9 in experiment [10].

In turn, `Oc1ncnc2[nH]ncc12` [allopurinol] showed a nH in [11] of 1.3.

In experiment [12], `CC(=O)N[C@@H](CC(=O)O)C(=O)N[C@@H](CCC(=O)O)C(=O)N[C@H](C(=O)N[C@H](C=O)CC(=O)O)C(C)C` [Ac-DEVD-CHO] gave a nH of 1.1.

`C[C@@H]1O[C@@H](O[C@H]2C[C@@H](O)[C@]3(CO)[C@H]4[C@H](O)C[C@]5(C)[C@@H](C6=CC(=O)OC6)CC[C@]5(O)[C@@H]4CC[C@]3(O)C2)[C@H](O)[C@H](O)[C@H]1O` [ouabain] gave a pIC50 in experiment [13] of 6.00.

With `CCCCCC[C@@H]([C@@H](C)O)n1cnc2c(N)ncnc21` (racemic) [EHNA], in experiment [14], the pIC50 was 5.96 and the nH came out at 0.8.

`OCCN(CCO)c1nc(N2CCCCC2)c2nc(N(CCO)CCO)nc(N3CCCCC3)c2n1` [dipyridamole] registered a nH in experiment [15] of 1.1.

Regarding `CC[C@H](C)[C@H](NC(C)=O)C(=O)N[C@@H](CCC(=O)O)C(=O)N[C@H](C(=O)N[C@H](C=O)CC(=O)O)[C@@H](C)O` [Ac-IETD-CHO] (Ac-IETD-aldehyde), in [16], the “IC50” value was 28 nM and the nH is given as 0.8.

As for `CC(Cc1ccc(O)c(O)c1)C(C)Cc1ccc(O)c(O)c1` (stereo not drawn) [NDGA], the nH in [17] was 1.6; in [18], 1.2.

`CCCOc1ccccc1-c1nc2nn[nH]c2c(=O)[nH]1` [zaprinast]: in experiment [19], the nH is listed as 1.0.

For orientation: IC50 means the concentration needed to halve the response being measured. As usually defined, the pIC50 is the negative decadic logarithm of the IC50, by convention in mol/L. A high value points to a low IC50.
